Assay [1] deals with T1, N-terminal His-tagged TYK2 pseudokinase domain (Homo sapiens, UniProt P29597).
T1 construct: the N-terminal His-tagged TYK2 pseudokinase domain; His (N); purchased Pharmaron
The assay can be described thus: TYK2 JH2 domain SPA binding assay. Conditions: displacement of H3 probe (20 nM), 30 min room temperature; class symbols. How it is done:
TYK2 JH2 Domain Binding Assay
After incubating at room temperature for 30 min, the inhibition was calculated by the displacement of [3H] 3 binding as determined by scintillation counting. Dose-response curves were generated to determine the concentration required to inhibit H3 probe binding by […] (IC50).

The test system of assay [2] is IL-23 induced STAT3 in HEK-Blue™ IL-23 cells. As to the kind of experiment: IL-23 induced STAT3 QUANTI-Blue reporter assay in HEK-Blue IL-23 cells. The assay is classed as cell-based. Conditions: IL-23 0.1 ng/mL, SEAP levels, class symbols, read-out: IL23 reporter assay (IC50 nM). The method, then:
Biological Example 2. IL-23 Induced STAT3 QUANTI-Blue in HEK-Blue™ IL-23 Cells
HEK-Blue™ IL-23 cells were prepared at 2×10^5 cells/ml for adding 5000 cell/well and incubate plates containing compounds+cells for 1 hour at 37° C. Prepare IL-23 (treatment at final conc. 0.1 ng/mL) during incubation and add 2 ul per well of prepared cytokine in media to appropriate wells. The plate is incubated for overnight at 37° C. The next day, QUANTI-Blue solution is prepared. 18 ul of QUANTI-Blue solution per well is added into a new 384-well clear flat bottom plate, then add 2 ul of induced and treated HEK-Blue cell supernatant from overnight plate. Incubate the plate at 37° C. for 2 hours and determine SEAP levels.

Where [3] appears, read: HEK-Blue IL-23, HEK-Blue IL-23 cells.

Structures can show the parent of a compound that is named as a salt. Where two headings read alike, the source gives them in different places.

The term IC50 denotes the midpoint of a concentration-inhibition curve.

T1 sequence (P29597 589-875 limits assumed): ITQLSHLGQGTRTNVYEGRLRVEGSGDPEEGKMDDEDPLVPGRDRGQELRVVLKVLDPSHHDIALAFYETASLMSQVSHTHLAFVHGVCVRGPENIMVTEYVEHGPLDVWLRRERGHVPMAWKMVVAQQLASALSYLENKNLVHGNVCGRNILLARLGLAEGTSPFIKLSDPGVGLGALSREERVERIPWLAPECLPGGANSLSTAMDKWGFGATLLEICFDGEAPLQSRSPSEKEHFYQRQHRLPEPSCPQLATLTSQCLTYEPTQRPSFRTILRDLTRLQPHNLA

On to `[2H]C([2H])([2H])Nc1cc(Nc2cccn(C3CC4(CCOC4)C3)c2=O)nn2c(C(=O)N[C@@H]3C[C@@H]3F)cnc12` (single isomer, unassigned) [Compound 102b], for which the IC50 in assay [1] and in assay [2] (HEK-Blue IL-23 cells) was 10 to 100 nM throughout.
As for `[2H]C([2H])([2H])Nc1cc(Nc2cccn(C3CC4(CCOC4)C3)c2=O)nc2c(C(=O)N[C@@H]3C[C@@H]3F)cnn12` (single isomer, unassigned) [Compound 103a], the IC50 in assay [1] and in assay [2] (setting [3]) was 10 to 100 nM in each case.
With `[2H]C([2H])([2H])Nc1cc(Nc2cccn(C3CC4(CCOC4)C3)c2=O)nc2c(C(=O)N[C@@H]3C[C@@H]3F)cnn12` (single isomer, unassigned) [Compound 103b], the IC50 lay within 100 to 1000 nM in assay [1] and 10 to 100 nM in assay [2] (HEK-Blue IL-23 cells).
For `[2H]C([2H])([2H])Nc1cc(Nc2cccn(C3CC4(CCCO4)C3)c2=O)nn2c(C(=O)N[C@@H]3C[C@@H]3F)cnc12` (single isomer, unassigned) [Compound 104a], the IC50 in assay [1] and in assay [2] (setting [3]) was 10 to 100 nM in each case.
Turning to `[2H]C([2H])([2H])Nc1cc(Nc2cccn(C3CC4(CCCO4)C3)c2=O)nn2c(C(=O)N[C@@H]3C[C@@H]3F)cnc12` (single isomer, unassigned) [Compound 104b], the IC50 in assay [1] and in assay [2] (HEK-Blue IL-23 cells) was 10 to 100 nM each time.
Regarding `CNc1cc(Nc2cccn(C3CC4CCOC43)c2=O)nn2c(C(=O)N[C@@H]3C[C@@H]3F)cnc12` (single isomer, unassigned) [Compound 105a], the IC50 in assay [1] was 100 to 1000 nM; in assay [2] (setting [3]), 10 to 100 nM.
For `CNc1cc(Nc2cccn(C3CC4CCOC43)c2=O)nn2c(C(=O)N[C@@H]3C[C@@H]3F)cnc12` (single isomer, unassigned) [Compound 105b], the IC50 fell in the range of 100 to 1000 nM in assay [1] and 10 to 100 nM in assay [2] (HEK-Blue IL-23 cells).
In the case of `CNc1cc(Nc2cccn(C3CC4CCOC43)c2=O)nn2c(C(=O)N[C@@H]3C[C@@H]3F)cnc12` (single isomer, unassigned) [Compound 105c], the IC50 in assay [1] and in assay [2] (HEK-Blue IL-23 cells) was 10 to 100 nM in each case.
With `CNc1cc(Nc2cccn(C3CC4CCOC43)c2=O)nn2c(C(=O)N[C@@H]3C[C@@H]3F)cnc12` (single isomer, unassigned) [Compound 105d], the IC50 in assay [1] is 10 to 100 nM; in assay [2] (HEK-Blue IL-23 cells), less than 10 nM.
`CNc1cc(Nc2cccn(-c3ncccc3F)c2=O)nn2c(C(=O)N[C@@H]3C[C@H]4CCO[C@H]43)cnc12` [Compound 1, N-((1R,5S,7R)-2-oxabicyclo[3.2.0]heptan-7-yl)-6-((3′-fluoro-2-oxo-2H-[1,2′-bipyridin]-3-yl)amino)-8-(methylamino)imidazo[1,2-b]pyridazine-3-carboxamide]: the IC50 in assay [1] was 10 to 100 nM; in assay [2] (setting [3]), less than 10 nM.
Regarding `[2H]C([2H])([2H])Nc1cc(Nc2cccn(-c3ncccc3F)c2=O)nn2c(C(=O)N[C@@H]3C[C@H]4CCO[C@H]43)cnc12` [Compound 5, N-((1R,5S,7R)-2-oxabicyclo[3.2.0]heptan-7-yl)-6-((3′-fluoro-2-oxo-2H-[1,2′-bipyridin]-3-yl)amino)-8-((methyl-d3)amino)imidazo[1,2-b]pyridazine-3-carboxamide], the figures for the IC50 in assay [1] and in assay [2] (setting [3]) were 10 to 100 nM and less than 10 nM, respectively.
The matching figures for `CNc1cc(Nc2cccc3c2OCCC3)nn2c(C(=O)NC3CCn4ccnc43)cnc12` (stereo not shown) [Compound 6, 6-(chroman-8-ylamino)-N-(6,7-dihydro-5H-pyrrolo[1,2-a]imidazol-7-yl)-8-(methylamino)imidazo[1,2-b]pyridazine-3-carboxamide]: less than 10 nM and less than 10 nM.
The matching figures for `CNc1cc(Nc2cccn(-c3ccccn3)c2=O)nn2c(C(=O)NC3CCc4conc43)cnc12` (stereo not shown) [Compound 7, N-(5,6-dihydro-4H-cyclopenta[c]isoxazol-6-yl)-8-(methylamino)-6-((2-oxo-2H-[1,2′-bipyridin]-3-yl)amino)imidazo[1,2-b]pyridazine-3-carboxamide]: less than 10 nM and less than 10 nM.
For the compound `[2H]c1onc2c1CCC2NC(=O)c1cnc2c(NC)cc(Nc3cccn(-c4ccccn4)c3=O)nn12` (stereo not shown) [Compound 8, N-(5,6-dihydro-4H-cyclopenta[c]isoxazol-6-yl-3-d)-8-(methylamino)-6-((2-oxo-2H-[1,2′-bipyridin]-3-yl)amino)imidazo[1,2-b]pyridazine-3-carboxamide], the IC50 in assay [1] and in assay [2] (setting [3]) was less than 10 nM throughout.
Consider `CNc1cc(Nc2cccn(-c3ccccn3)c2=O)nn2c(C(=O)NC3CCc4scnc43)cnc12` (stereo not shown) [Compound 9, N-(5,6-dihydro-4H-cyclopenta[d]thiazol-4-yl)-8-(methylamino)-6-((2-oxo-2H-[1,2′-bipyridin]-3-yl)amino)imidazo[1,2-b]pyridazine-3-carboxamide], for which the 50% inhibitory concentration (IC50) in assay [1] and in assay [2] (setting [3]) was less than 10 nM each time.
With `CNc1cc(Nc2cccn(C3CCC4(CC3)COC4)c2=O)nn2c(C(=O)N[C@@H]3C[C@H]4CCO[C@H]43)cnc12` [Compound 12, N-((1R,5S,7R)-2-oxabicyclo[3.2.0]heptan-7-yl)-8-(methylamino)-6-((2-oxo-1-(2-oxaspiro[3.5]nonan-7-yl)-1,2-dihydropyridin-3-yl)amino)imidazo[1,2-b]pyridazine-3-carboxamide], the IC50 in assay [1] and in assay [2] (setting [3]) was less than 10 nM throughout.
For the compound `CNc1cc(Nc2cccn(C3C[C@H]4CC[C@@H](C3)O4)c2=O)nn2c(C(=O)N[C@@H]3C[C@H]4CCO[C@H]43)cnc12` (stereo partly drawn) [Compound 13, 6-((1-(cis-8-oxabicyclo[3.2.1]octan-3-yl)-2-oxo-1,2-dihydropyridin-3-yl)amino)-N-((1R,5S,7R)-2-oxabicyclo[3.2.0]heptan-7-yl)-8-(methylamino)imidazo[1,2-b]pyridazine-3-carboxamide], the results for the IC50 in assay [1] and in assay [2] (setting [3]) were 10 to 100 nM and less than 10 nM, respectively.
The matching figures for `[2H]C([2H])([2H])Nc1cc(Nc2cccn([C@@H]3C[C@H]4CCO[C@H]43)c2=O)nn2c(C(=O)N[C@@H]3C[C@H]4CCO[C@H]43)cnc12` [Compound 14, 6-((1-((1R,5S,7R)-2-oxabicyclo[3.2.0]heptan-7-yl)-2-oxo-1,2-dihydropyridin-3-yl)amino)-N-((1R,5S,7R)-2-oxabicyclo[3.2.0]heptan-7-yl)-8-((methyl-d3)amino)imidazo[1,2-b]pyridazine-3-carboxamide]: less than 10 nM and less than 10 nM.
Consider `[2H]C([2H])([2H])O[C@H]1CC[C@@H](n2cccc(Nc3cc(NC)c4ncc(C(=O)N[C@@H]5C[C@@H]5F)n4n3)c2=O)CC1` [Compound 15, N-((1R,2S)-2-fluorocyclopropyl)-6-((1-((1s,4s)-4-(methoxy-d3)cyclohexyl)-2-oxo-1,2-dihydropyridin-3-yl)amino)-8-(methylamino)imidazo[1,2-b]pyridazine-3-carboxamide hydrochloride], for which the half-maximal inhibitory concentration (IC50) in assay [1] and in assay [2] (setting [3]) was 10 to 100 nM throughout.
For `CNc1cc(Nc2cccn([C@H]3CC[C@H](OC)CC3)c2=O)nn2c(C(=O)N[C@@H]3C[C@@H]3F)cnc12` [Compound 16, N-((1R,2S)-2-fluorocyclopropyl)-6-((1-((1r,4r)-4-methoxycyclohexyl)-2-oxo-1,2-dihydropyridin-3-yl)amino)-8-(methylamino)imidazo[1,2-b]pyridazine-3-carboxamide], the values for the IC50 in assay [1] and in assay [2] (setting [3]) were 10 to 100 nM and less than 10 nM, respectively.
The matching figures for `CNc1cc(Nc2cccn(-c3ccccn3)c2=O)nc2c(C(=O)NC3CCn4ncnc43)cnn12` (stereo not shown) [Compound 17, N-(6,7-dihydro-5H-pyrrolo[1,2-b][1,2,4]triazol-7-yl)-7-(methylamino)-5-((2-oxo-2H-[1,2′-bipyridin]-3-yl)amino)pyrazolo[1,5-a]pyrimidine-3-carboxamide]: 10 to 100 nM and 10 to 100 nM.
The matching figures for `CNc1cc(Nc2cccn(-c3ccccn3)c2=O)nc2c(C(=O)NC3CCn4ccnc43)cnn12` (stereo not shown) [Compound 18, N-(6,7-dihydro-5H-pyrrolo[1,2-a]imidazol-7-yl)-7-(methylamino)-5-((2-oxo-2H-[1,2′-bipyridin]-3-yl)amino)pyrazolo[1,5-a]pyrimidine-3-carboxamide]: less than 10 nM and less than 10 nM.
In the case of `[2H]C([2H])([2H])Nc1cc(Nc2cccn([C@H]3C[C@H](OC([2H])([2H])[2H])C3)c2=O)nc2c(C(=O)N[C@@H]3C[C@H]4CCO[C@H]43)cnn12` [Compound 19, N-((1R,5S,7R)-2-oxabicyclo[3.2.0]heptan-7-yl)-5-((1-((1r,3r)-3-(methoxy-d3)cyclobutyl)-2-oxo-1,2-dihydropyridin-3-yl)amino)-7-((methyl-d3)amino)pyrazolo[1,5-a]pyrimidine-3-carboxamide], the concentration for half-maximal inhibition (IC50) in assay [1] and in assay [2] (setting [3]) was 10 to 100 nM in each case.
On to `CNc1cc(Nc2cccc3c2OCCC3)nn2c(C(=O)NCc3ncco3)cnc12` [Compound 20], for which the IC50 in assay [1] and in assay [2] (setting [3]) was less than 10 nM throughout.
For `CNc1cc(Nc2cccc3c2OCCC3)nn2c(C(=O)NCc3nccn3C)cnc12` [Compound 21], the figures for the half-maximal inhibitory concentration (IC50) in assay [1] and in assay [2] (setting [3]) were 10 to 100 nM and less than 10 nM, respectively.
The matching figures for `CNc1cc(Nc2cccn(-c3ccccc3F)c2=O)nn2c(C(=O)N[C@@H]3C[C@H]4CCO[C@H]43)cnc12` [Compound 44]: 10 to 100 nM and less than 10 nM.

The values are drawn from patent US20240335443A1, “IMIDAZOLOPYRIDAZINE OR PYRAZOLOPYRIMIDINE COMPOUNDS AND COMPOSITIONS” (Anrui Biomedical Technology (Guangzhou) Co., Ltd., priority 2021, published 2024).
